Results: patent US20240374734A1, “Immunomodulatory Combinations of Antigen and Drug-Lipid Conjugate” (Integrated Nanotherapeutics Inc., priority 2021, published 2024)
Like-named read-outs stand apart in the source and are kept apart here.

Legend:
[1] = Characterisation of prodrug LNP: particle size, PdI, prodrug entrapment; type: physicochemical; details: for % Entrap (Dex/Calcitriol): Calcitriol: Table 2, calcitriol prodrug; for PdI / Size: Table 2, prodrug LNP
Method: Lipid conjugates (prodrugs) were dissolved in ethanol, isopropanol, DMSO or THF. LNP were prepared by rapidly mixing DSPC or DMPC, cholesterol, prodrugs, and PEG-DSPE (in a molar ratio of 49/40/10/1) with phosphate-buffered saline (PBS) using a cross-junction mixer. Formulations were dialyzed against PBS to remove residual ethanol. In cases where a peptide antigen, such as ovalbumin peptide […] (OVA), was co-formulated within the LNP, the peptide is dissolved in PBS and rapidly mixed with the lipid phase. Dialysis or tangential flow filtration was used to remove all unentrapped peptide.
(§1) The physiochemical properties of the LNPs prepared as described above were subsequently characterized. Particle size was determined by dynamic light scattering using a Malvern Zetasizer Nano ZS (Malvern, UK) following buffer exchange into phosphate-buffered saline. Number-weighted size and distribution data was used. Lipid concentrations were determined by measuring total cholesterol using the Cholesterol E enzymatic assay kit from Wako Chemicals USA (Richmond, VA). mRNA entrapment was determined using a modified Quanti-iT Ribogreen assay (ThermoFisher, Waltham, MA). LNP-mRNA systems were incubated in the presence or absence of 1% Triton X-100 (Sigma-Aldrich, St. Louis, MO). Fluorescence intensities (Ex/Em: 480/520 nm) were compare to determine % mRNA entrapment.

[2] = Characterisation of LNP co-loaded with mRNA and prodrugs: Z-Ave, PDI, mRNA and prodrug entrapment; type: physicochemical
Method: To prepare LNPs that contain mRNA that codes for the antigen, ionizable lipid such as INT-A002 (see page 32 of co-owned WO 2021/026647; Application No. PCT/CA2020/051098, which is incorporated herein by reference), DSPC, cholesterol and PEG-DMG were dissolved in ethanol. Prodrugs were dissolved in ethanol, isopropanol, DMSO or THF. The mRNA was dissolved in 10 mM citrate or 25 mM acetate buffer at pH 4.0. LNP were prepared by rapidly mixing the lipid components in ethanol (in molar ratio of 45/8.5/35/1.5/10 of INT-A002/DSPC/chol/PEG-DMG/prodrugs) with nucleic acids in aqueous buffer at a volumetric flow rate ratio of 1:3 (ethanol to aqueous, combined flow rate 28 ml/min) at room temperature. The product was then dialyzed against 1× phosphate-buffered saline (PBS) at pH 7.4 for 24 hours to remove residual ethanol and to raise the pH.
as §1

[3] = system: CD4+ T cells from OT-II mice; assay: Antigen-specific OT-II CD4+ T cell proliferation with OVA peptide and prodrug-treated BMDCs; type: cell-based; details: BMDCs pre-treated with prodrug LNP, pulsed with free OVA peptide
Text: CD4 T cells were collected from OT-II mice. These mice have T cell receptors on CD4+ T cells engineered to bind and react to Ovalbumin 323-339 peptide fragment (OVA) when presented on I-Ab MHC Class II. When APCs are loaded with OVA and mixed with these T cells, a robust proliferation of T cells is observed (akin to having an antigen-specific immune disorder).
For the antigen specific model, splenocytes were isolated from OT-II mice (B6.Cg-Tg (TcraTcrb) 425Cbn/J; Jackson Laboratories). CD4+ T cells were purified by CD4 positive selection (EasySep™ Mouse CD4+ T Cell Isolation Kit, Catalog #19852, Stem Cell Technologies) and labelled with 10 μM CFSE and plated in 96-well U bottom plates at a density of 100,000 cells/well. On the same day, prodrug treated C57BL/6 BMDCs (described above) were harvested, pulsed with/without OVA peptide, irradiated at 30 Gy, and co-cultured with the CD4+ cells for 3 days at T:DC ratios of 50:1, 10:1 and 5:1, in RPMI 1640 media (supplemented with 10% FBS, 10 mM HEPES, 50 μM β-mercaptoethanol, 10 mM sodium pyruvate, 1× GlutaMAX, and 1% Pen/Strep). Subsequently, cells were stained for viability (eBioscience Fixable Viability Dye eFlour780, cat #65-0865) and CD4 (eBioscience CD4 Monoclonal Antibody (RM4-5), cat #48-0042-82), and T cell proliferation was quantified via CFSE dilution by flow cytometry.

[4] = system: Ova specific CD4+ T cells (OT-II T cells); assay: OT-II CD4+ T cell proliferation after BMDC co-treatment with LNP-mRNA and prodrug-LNP; type: cell-based, mice; details: BMDCs treated 48 hours with LNP-mRNA only or LNP-mRNA and separate prodrug LNP
Method: The mRNA used in this example is modified to minimize immune stimulation and encodes for full length Ovalbumin (Ova) protein (Trilink, L-7210). Bone marrow-derived dendritic cells (BMDCs) were prepared as previously described and co-cultured with isolated CD4+ T cells (OT-II T cells) that specifically recognize the Ova323-339 epitope loaded in H-2b MHC Class II (C57BL/6 haplotype). Proliferation was assessed based on CFSE dilution by flow cytometry. BMDCs pulsed for 4 hours with free Ova323-339 peptide (0.1 μg/mL) served as an antigen-loaded control (Free Ova Peptide), and untreated BMDCs served as the No Antigen control. 48 hours prior to co-culturing, BMDCs were treated with LNP-mRNA only or LNP-mRNA and LNP containing dexamethasone (D034) or calcitriol (D053) prodrugs.

[5] = Retention of lipid conjugate (prodrug) in LNP after incubation in human plasma; details: 2 hours incubation in human plasma; DSPC/Chol/Prodrug/DSPE-PEG LNP
[6] = human, plasma, 2 h
[7] = Table 6, LNP-mRNA with lipid conjugate

| Compound | % Entrap (Dex/Calcitriol): Calcitriol [1] | PdI [1] | Size [1] [nm] | % mRNA Entrap. [2, 7] [%] | PDI [2, 7] | Z-Ave (nm) ([2]; Table 6, LNP-mRNA with lipid conjugate (mol %)) | T cell proliferation induced by OVA loaded BMDCs [3] | T-cell proliferation (CFSE dilution) [4] | lipid conjugate (prodrug) remaining in LNPs [5] | lipid conjugate (prodrug) remaining in LNPs [6] |
| --- | --- | --- | --- | --- | --- | --- | --- | --- | --- | --- |
| C=C1/C(=C\C=C2/CCC[C@]3(C)[C@@H]([C@H](C)CCCC(C)(C)O)CC[C@@H]23)C[C@@H](OC(=O)CCCCCCC/C=C\C[C@@H](CCCCCC)OC(=O)CCCCCCC/C=C\C/C=C\CCCCC)C[C@@H]1OC(=O)CCCCCCC/C=C\C[C@@H](CCCCCC)OC(=O)CCCCCCC/C=C\C/C=C\CCCCC [Prodrug D087] | —/99% | 0.055 | 40 | – | – | – | – | – | – | – |
| (1R,3S,Z)-3-hydroxy-5-(2-((1R,3aS,7aR,E)-1-((R)-6-hydroxy-6-methylheptan-2-yl)-7a-methyloctahydro-4H-inden-4-ylidene)ethylidene)-4-methylenecyclohexyl (R,Z)-12-acetoxyoctadec-9-enoate and (1S,5R,Z)-5-hydroxy-3-(2-((1R,3aS,7aR,E)-1-((R)-6-hydroxy-6-methylheptan-2-yl)-7a-methyloctahydro-4H-inden-4-ylidene)ethylidene)-2-methylenecyclohexyl (R,Z)-12-acetoxyoctadec-9-enoate [Prodrug D053] | —/98% | 0.070 | 55 | 97 | 0.034 | 69 | significantly reduces | suppressed | stably retained | – |
| CCCCC/C=C\C/C=C\CCCCCCCC(=O)O[C@@H](C/C=C\CCCCCCCCOC(=O)CCC(=O)OCC(=O)[C@@]1(O)[C@H](C)C[C@H]2[C@@H]3CCC4=CC(=O)C=C[C@]4(C)[C@@]3(F)[C@@H](O)C[C@@]21C)CCCCCC [Prodrug D045, 2-((8S,9R,10S,11S,13S,14S,16R,17R)-9-fluoro-11,17-dihydroxy-10,13,16-trimethyl-3-oxo-6,7,8,9,10,11,12,13,14,15,16,17-dodecahydro-3H-cyclopenta[a]phenanthren-17-yl)-2-oxoethyl ((R,Z)-12-(linoleoyloxy)octadec-9-en-1-yl) succinate] | – | – | – | – | – | – | – | – | – | stably retained |
